Assays:
EGFR = tested on: EGFR; set-up: method as in PMID 22753156, PMID 15199094; details: cited from earlier work
COR-L23 cells = tested on: COR-L23 cells; set-up: method as in PMID 21366300; details: COR-L23 lung cancer cells; read-out: IC50 nucleoside-nucleobase transport inhibition; cited from earlier work
HCT 116 cells = assay: MTT cytotoxicity assay in HCT 116 colorectal cancer cells; type: cell-based; details: Homo sapiens, HCT 116, 48 h exposure, ± SEM, read-out: IC50 (cytotoxic activity)
Method: (§1) The colorectal cancer cell line HCT 116 (ATCC CCL-247) was grown in Roswell Park Memorial Institute 1640 Medium (RPMI, Biochrom Ltd., Cambridge, UK), and the breast cancer cell line MDA-MB-231 (ATCC HTB-26, American Type Culture Collection, Manassas, VA, USA) was maintained in Dulbecco’s Modified Eagle Medium (DMEM, Biochrom Ltd., Cambridge, UK) supplemented with 10% (v/v) fetal bovine serum (FBS, Biochrom Ltd., Cambridge, UK) and 1% (v/v) penicillin-streptomycin (p/s, Biochrom) on tissue-culture-treated flasks. The human fibroblast BJ-5ta cell line (ATCC CRL-2522) was grown in a 4:1 proportion of DMEM:Medium 199 (PAN-Biotech GmbH, Aidenbach, Germany), supplemented with 10% (v/v) FBS, 1% (v/v) p/s, and 0.01% (v/v) hygromycin B (Sigma-Aldrich, St. Louis, MO, USA). All cell lines were authenticated and tested for mycoplasma contamination. Cells were incubated at 37 °C with 5% CO2 and 95% relative humidity. […] Cell counts were determined using a hemocytometer. […]
(§2) After the incubation period, the culture media was discarded from each well, and 100 µL (0.5 mg/mL) was added. […] Cell viability was determined based on the absorbance measured at 570 nm using a microplate reader (Cytation 3, BioTek Instruments, Winooski, VT, USA). The absorbance of untreated cells or DMSO-treated cells was considered at 100% cell viability. […]

MDA-MB-231 cells = assay: MTT cytotoxicity assay in MDA-MB-231 triple-negative breast cancer cells; type: cell-based; details: Homo sapiens, MDA-MB-231, 48 h exposure, ± SEM, read-out: IC50 (cytotoxic activity)
Method: as §1, §2

Aqueous solubility = type: physicochemical

SMILES	IC50 (COR-L23 cells)	IC50 (HCT 116 cells)	IC50 (MDA-MB-231 cells)	also measured
CCN(CC)CC1CCN(c2ncc3ncnc(Nc4ccc(F)c(Cl)c4)c3n2)CC1 [compound III]				Activity as EGFR tyrosine kinase inhibitors (EGFR): nanomolar range
COc1ccc(NC(=O)OC(C)CCc2nc(NCc3ccc(OC)c(OC)c3)c3nc(NCC(C)OC(=O)CCC(=O)O)nc(CCc4ccc(OC)c(OC)c4)c3n2)cc1 (stereo not drawn) [VI]	0.007 µM			
COc1ccc(NC(=O)OC(C)CCc2nc(NCc3ccc(OC)c(OC)c3)c3nc(NCC(C)O)nc(CCc4ccc(OC)c(OC)c4)c3n2)cc1 (stereo not drawn) [V]	0.004 µM			
O=c1[nH]cc(F)c(=O)[nH]1 [5-FU, 5-Fluorouracil]		10.4 ± 0.68 µM	183 ± 17.1 µM	
COc1ccc(CCc2nc(NCC(C)O)nc3c(NCc4ccc(OC)c(OC)c4)nc(CCC(C)OC(=O)Nc4ccccc4)nc23)cc1OC (stereo not drawn) [IV]	0.008 µM			
O=C(NNc1ncnc2c(Nc3ccc(OC(F)(F)F)cc3)ncnc12)c1ccccc1 [PP, N’-(8-((4-(Trifluoromethoxy)phenyl)amino)pyrimido[5,4-d]pyrimidin-4-yl)benzohydrazide]		2.04 ± 0.45 µM	5.24 ± 0.24 µM	Solubility in aqueous medium (Aqueous solubility): poor solubility in aqueous medium

Source: PMC12389155 (Pharmaceuticals, 2025)
